Laboratory results: patent US7259004B1, “Endophytic streptomycetes from higher plants with biological activity” (Montana State University, priority 2002, dated 2007)
In brackets after ≈: the same amount, converted by molar mass. Each block holds one compound with its values, some of them ahead of it.

Assays:
Aspergillus fumigatus = assay: microbroth dilution MIC
Candida albicans = assay: microbroth dilution MIC
Cryptococcus neoformans = assay: microbroth dilution MIC
[1] = system: Plasmodium falciparum strain CSC-1 (Honduras); assay: antimalarial assay, 3H-phenylalanine radiobioassay in human red blood cells
[2] = system: Human Lung Cancer Epithelial A549; assay: CellTiter 96 Aqueous Non-Radioactive Cell Proliferation Assay; format: cell-based; conditions: Homo sapiens, A549; 48 hours; Table 7; read-out: IC50 Human Lung Cancer Epithelial A549
Method: (§1) The munumbicins were then tested against three human cancer cell lines (ATCC) and human primary mammary epithelial cells (HMECs) (Clonetics; Biowhittaker, Walkersville, Md.) using a CellTiter 96® Aqueous Non-Radioactive Cell Proliferation Assay kit from Promega (Madison, Wis.). The cell lines were A-549 (lung epithelial carcinoma, ATCC CCL-185), ME-180 (cervical epithelial epidermoid carcinoma, ATCC HTB-33), and BT-20 (breast epithelial cancer, ATCC HTB-19), and were grown in the media recommended by ATCC. The primary mammary cells were cultured as recommended by the manufacturer in mammary epithelial cell growth media (MEGM®). […] After seeding, the cells were incubated for five hours at 37° C. before addition of the munumbicins. Two-fold serial dilutions of the munumbicins were made in the culture medium, and a volume equal to that of the seeded cells for each dilution was added to three wells of cells. Each plate also contained some wells with cells plus medium only and some wells with medium only. […] The A-549 and ME-180 cells were incubated for 48 hours. […] The plates were incubated at 37° C. for one to four hours, and the OD490 was determined. The OD reading of all wells was corrected for background by subtracting the reading of wells containing medium only. […] Kakadumycin A was tested against three human cancer cell lines (ATCC) and human primary mammary epithelial cells using the procedure described above for the munumbicins. Kadadumycin B was tested against one human cancer cell line.

[3] = system: Human Cervical Cancer Epithelial ME180; assay: as above; format: cell-based; conditions: Homo sapiens, ME-180; 48 hours; Table 7; read-out: IC50 Human Cervical Cancer Epithelial ME180
Method: as §1

- MIC Aspergillus fumigatus (Aspergillus fumigatus): 0.62 micrograms/ml
- MIC Candida albicans (Candida albicans): 1.25 micrograms/ml
- MIC Cryptococcus neoformans (Cryptococcus neoformans): 0.13 micrograms/ml
SMILES: C[C@@H]1[C@H](O)[C@@H](C)/C=C/C=C/C=C/C=C/C=C/C=C/C=C/[C@H](O[C@@H]2O[C@H](C)[C@@H](O)[C@H](N)[C@@H]2O)C[C@@H]2O[C@](O)(C[C@@H](O)C[C@@H](O)[C@H](O)CC[C@@H](O)C[C@@H](O)CC(=O)O[C@H]1C)C[C@H](O)[C@H]2C(=O)O [Amphotericin B, reference compound]

SMILES: CCN(CC)CCCC(C)Nc1ccnc2cc(Cl)ccc12 (stereo not shown) [Chloroquine, reference compound]
- IC50 ([1]; Plasmodium falciparum, Erythrocyte, read-out: IC50 Plasmodium falciparum): 7 ng/mL (≈ 0.0219 µM)
- IC50 Plasmodium falciparum ([1]; human red blood cells, 3H-phenylalanine, standard deviation of the mean, three experiments): 7.0 ± 0 ng/mL (≈ 0.0219 µM)

- IC50 [2]: > 40000 ng/mL
- IC50 [3]: > 40000 ng/mL
SMILES: CC[C@H]1OC(=O)[C@H](C)[C@@H](O[C@H]2C[C@@](C)(OC)[C@@H](O)[C@H](C)O2)[C@H](C)[C@@H](O[C@@H]2O[C@H](C)C[C@H](N(C)C)[C@H]2O)[C@](C)(O)C[C@@H](C)C(=O)[C@H](C)[C@@H](O)[C@]1(C)O [Erythromycin, reference compound]
